Experiments:
PDEV [1] = biological target: T1, PDEV (Homo sapiens, UniProt O76074); experiment: PDE assay: inhibition of PDEV isolated from human tissue; type: biochemical; settings: for IC50: PDEV inhibitory activity
T1 construct: PDEV was isolated from rabbit and human tissues according to the protocol described by Boolell et al; from tissue; host or cells: human tissue, homogenate supernatant fractionated on Mono Q
Protocol: (§1) Briefly, rabbit or human tissues were homogenized in an ice-cold buffer solution containing 20 mM HEPES (pH 7.2), 0.25M sucrose, 1 mM EDTA, and 1 mM phenylmethylsulphonyl fluoride (PMSF). The homogenates were centrifuged at 100,000 g for 60 minutes at 4° C. The supernatant was filtered through […] filter and loaded on a Pharmacia Mono Q anion exchange column (1 ml bed volume) that was equilibrated with 20 mM HEPES, 1 mM EDTA and 0.5 mM PMSF. After washing out unbound proteins, the enzymes were eluted with a linear gradient of 100-600 mM NaCl in the same buffer (35 to 50 ml total, depending on the tissue. Enzymes from the skeletal muscle, corpus cavernosum, retina, heart and platelet were eluted with 35, 40, 45, 50, and 50 ml respectively.) The column was run at a flow rate of 1 ml/min and 1 ml fractions were collected. The fractions comprising various PDE activities were pooled separately and used in later studies.
(§2) The assays were adapted to a 96-well format. The enzyme was assayed in 5 mM MgCl2, 15 mM Tris HCl (pH 7.4), 0.5 mg/ml bovine serum albumin, 1 μM cGMP or cAMP, 0.1 μCi [^3H]-cGMP or [^3H]-cAMP, and 2-10 μl of column elution. The total volume of the assay was 100 μl. The reaction mixture was incubated at 30° C. for 30 minutes. The reaction was stopped by boiling for 1 minute and then cooled down on ice. The resulting [^3H]5′-mononucleotides were further converted to uncharged [^3H]-nucleosides by adding 25 μl 1 mg/ml snake venom (Ophiophagus hannah) and incubating at 30° C. for 10 minute. The reaction was stopped by the addition of 1 ml Bio-Rad AG1-X2 resin slurry (1:3). All the charged nucleotides were bound by the resin and only uncharged [^3H]-nucleosides remained in the supernatant after centrifuging. An aliquot of 200 μl was taken and counted by liquid scintillation. PDE activity was expressed as pmol cyclic nucleotide hydrolyzed/min/ml of enzyme preparation.
(§3) Inhibitor studies were carried out in assay buffer with a final concentration of 10% DMSO.
(§4) The % inhibition of the maximum substrate conversion (by the enzyme in the absence of inhibitor) was calculated for each test compound concentration. Using GraphPad Prism's nonlinear regression analysis (sigmoidal dose response), the % inhibition vs log of the test compound concentration was plotted to determine the IC50. Under conditions where substrate concentration <<Km of the enzyme (Km=substrate concentration at which half of the maximal velocity of the enzyme is achieved), Ki is equivalent to the IC50 value.
(§5) Unless otherwise noted, PDEV inhibitory activities were measured using human tissue. The abbreviation “stereo” refers to the stereogenic configuration, the abbreviation “Rac” shall denote a racemic mixture.

[2] = In vivo testing for efficacy, procedure of Carter et al.
Protocol: Following the procedure disclosed by Carter et al., (Carter, A. J., Ballard, S. A., and Naylor, A. M.) in The Journal of Urology 1998, 160, 242-246, the compounds as listed in Table 7 were tested for in vivo efficacy, with results as tabulated below.

PDEV [3] = biological target: PDEV (Oryctolagus cuniculus, UniProt G1SX67); experiment: PDE assay: inhibition of PDEV isolated from rabbit tissue; type: biochemical; settings: PDEV inhibitory activity, rabbit tissue (footnote a)
Protocol: as §1, §2, §3, §4, §5

PDEV [4] = biological target: T1, PDEV; experiment: In vitro determination of Ki for phosphodiesterase inhibitors; type: biochemical; settings: human tissue; given as 'Ki ='
Protocol: The assays were adapted to a 96-well format. Phosphodiesterase was assayed in 5 mM MgCl2, 15 mM Tris HCl (pH 7.4), 0.5 mg/ml bovine serum albumin, 30 nM ^3H-cGMP and test compound at various concentrations. The amount of enzyme used for each reaction was such that less than 15% of the initial substrate was converted during the assay period. For all measurements, the test compound was dissolved and diluted in 100% DMSO (2% DMSO in assay). The total volume of the assay was 100 μl. The reaction mixture was incubated at 30° C. for 90 minutes. The reaction was stopped by boiling for 1 minute and then immediately cooled by transfer to an ice bath. To each well was then added 25 μl 1 mg/ml snake venom (Ophiophagus hannah) and the reaction mixture incubating at 30° C. for 10 minute. The reaction was stopped by the addition of 1 ml Bio-Rad AG1-X2 resin slurry (1:3). An aliquot of 200 μl was taken and counted by liquid scintillation.
as §4, §5

Structure (SMILES)	IC50 (PDEV [1]) [nM]	melting point	Efficacy [2]	other results
COc1ccc(-c2cnc(N3Cc4c([nH]c5ccccc5c4=O)C3c3ccc4c(c3)OCO4)nc2)cc1 (racemic) [Compound 2, 1,2,3,4-Tetrahydro-2-[5-(4-methoxyphenyl)-pyrimidin-2-yl]-3-(3,4-methylene-dioxyphenyl)-9H-pyrrolo-[3,4-b]quinolin-9-one]	0.191	325 to 327 °C	–	–
COc1ccc(-c2cnc(N3Cc4c([nH]c5ccccc5c4=O)[C@H]3c3ccc4c(c3)CCO4)nc2)cc1 [Compound 66, (R)-1,2,3,4-Tetrahydro-2-[5-(4-methoxyphenyl)-pyrimidin-2-yl]-3-(2,4-dihydrobenzofuranyl)-9H-pyrrolo-[3,4-b]quinolin-9-one]	0.19	–	Active	–
Cl.O=C(OCc1ccncc1)N1Cc2c([nH]c3ccccc3c2=O)C1c1ccc2c(c1)OCO2 (racemic) [Compound 37, 1,2,3,4-Tetrahydro-2-[(4-pyridinyl)methyloxycarbonyl]-3-(3,4-methylenedioxyphenyl)-9H-pyrrolo-[3,4-b]quinolin-9-one, hydrochloride salt]	5.72	–	Active	–
O=c1c2c([nH]c3ccccc13)[C@@H](c1ccc3c(c1)CCO3)N(c1ncc(-c3ccccn3)cn1)C2 [Compound 65, (R)-1,2,3,4-Tetrahydro-2-[5-(2-pyridinyl)-pyrimidin-2-yl]-3-(2,3-dihydrobenzofuranyl)-9H-pyrrolo-[3,4-b]quinolin-9-one]	0.23	–	Active	–
COc1ccc(C2NCc3c2[nH]c2ccccc2c3=O)cc1OC (racemic) [Compound 12, 1,2,3,4-Tetrahydro-3-(3,4-dimethoxyphenyl)-9H-pyrrolo-[3,4-b]quinolin-9-one]	–	223 to 225 °C	–	IC50 (PDEV [3]): 549 nM
O=c1c2c([nH]c3ccccc13)C(c1ccc3c(c1)OCO3)N(C(=S)n1ccnc1)C2 (racemic) [Compound 18, 1,2,3,4-Tetrahydro-2-(imidazol-1-yl)thiocarbonyl-3-(3,4-methylenedioxyphenyl)-9H-pyrrolo-[3,4-b]quinolin-9-one]	–	211 to 215 °C (dec.)	–	inhibition at 10 µM (PDEV [1]; 10 μM test compound): 54%
COc1ccc(-c2cnc(N3Cc4c([nH]c5ccccc5c4=O)[C@H]3c3ccc4c(c3)OCO4)nc2)cc1OC [Compound 36, (R)-1,2,3,4-Tetrahydro-2-[5-(3,4-dimethoxyphenyl)-pyrimidin-2-yl]-3-(3,4-methylenedioxyphenyl)-9H-pyrrolo-[3,4-b]quinolin-9-one]	0.075	–	Active	–
Cc1ncc(-c2cnc(N3Cc4c(nc5ccccc5c4O)C3c3ccc4c(c3)CCO4)nc2)n1Cc1ccccc1 (racemic) [Compound 127, 2-[5-(3-Benzyl-2-methyl-3H-imidazol-4-yl)-pyrimidin-2-yl]-3-(2,3-dihydro-benzofuran-5-yl)-1,2,3,4-tetrahydro-pyrrolo[3,4-b]quinolin-9-one]	–	–	–	Ki (PDEV [4]): 0.14 nM
O=c1c2c([nH]c3ccccc13)C(c1ccc3c(c1)CCO3)N(c1ncc(-c3cccc[n+]3[O-])cn1)C2 (stereo not shown) [Compound 125, 3-(2,3-Dihydro-benzofuran-5-yl)-2-[5-(1-oxy-pyridin-2-yl)-pyrimidin-2-yl]-1,2,3,4-tetrahydro-pyrrolo[3,4-b]quinolin-9-one]	–	–	–	Ki (PDEV [4]): 0.144 nM
